Source: patent US20260262643A1, “HERBICIDAL BENZOXAZINES” (FMC CORPORATION, priority 2022, published 2026)

Assays:
oat, wild [1] = test: Test A preemergence; assay type: in vivo, Avena fatua
In short: (§1)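 Weeds and crops in loam–sand blend were sprayed preemergence onto soil or postemergence at 2–10 cm (one- to two-leaf stage). Test chemicals were in a non-phytotoxic solvent with surfactant. After 10 days in the greenhouse, injury was rated visually against untreated controls on a 0 (no effect) to 100 (complete control) scale.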

rice = test: Test B flooded paddy test; assay type: in vivo, Oryza sativa; details: 250 g ai/ha, Flood, 13 days, 0 to 100 scale (0 no effect, 100 complete control)
In short: (§2)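 2-leaf stage; pots flooded 3 cm over soil; compound dosed into paddy water; depth kept constant. Greenhouse, 13 d. Visual rating vs controls, 0 (no effect)–100 (complete control). Dash = no result.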

goosegrass [2] = test: Test A preemergence; assay type: in vivo, Eleusine indica
In short: as §1

sedge, umbrella = test: Test B flooded paddy test; assay type: in vivo, Cyperus difformis; details: 250 g ai/ha, Flood, 13 days, 0 to 100 scale (0 no effect, 100 complete control)
In short: as §2

kochia [3] = test: Test A postemergence; assay type: in vivo, Bassia scoparia
In short: as §1

barnyardgrass = test: Test B flooded paddy test; assay type: in vivo, Echinochloa crus-galli; details: 250 g ai/ha, Flood, 13 days, 0 to 100 scale (0 no effect, 100 complete control)
In short: as §2

blackgrass [4] = test: Test A preemergence; assay type: in vivo, Alopecurus myosuroides
In short: as §1

ragweed [5] = test: Test A postemergence; assay type: in vivo, Ambrosia artemisiifolia
In short: as §1

goosegrass [6] = test: Test A postemergence; assay type: in vivo, Eleusine indica
In short: as §1

soybean [7] = test: Test A postemergence; assay type: in vivo, Glycine max
In short: as §1

pigweed, palmer [8] = test: Test A postemergence; assay type: in vivo, Amaranthus palmeri
In short: as §1

ducksalad = test: Test B flooded paddy test; assay type: in vivo, Heteranthera limosa; details: 250 g ai/ha, Flood, 13 days, 0 to 100 scale (0 no effect, 100 complete control)
In short: as §2

ryegrass, Italian [9] = test: Test A preemergence; assay type: in vivo, Lolium multiflorum
In short: as §1

pigweed, palmer [10] = test: Test A preemergence; assay type: in vivo, Amaranthus palmeri
In short: as §1

corn [11] = test: Test A postemergence; assay type: in vivo, Zea mays
In short: as §1

foxtail, giant [12] = test: Test A postemergence; assay type: in vivo, Setaria faberi
In short: as §1

galium = test: Test A postemergence; assay type: in vivo, Galium aparine
In short: as §1

wheat [13] = test: Test A preemergence; assay type: in vivo, Triticum aestivum
In short: as §1

wheat [14] = test: Test A postemergence; assay type: in vivo, Triticum aestivum
In short: as §1

kochia [15] = test: Test A preemergence; assay type: in vivo, Bassia scoparia
In short: as §1

ryegrass, Italian [16] = test: Test A postemergence; assay type: in vivo, Lolium multiflorum
In short: as §1

foxtail, giant [17] = test: Test A preemergence; assay type: in vivo, Setaria faberi
In short: as §1

blackgrass [18] = test: Test A postemergence; assay type: in vivo, Alopecurus myosuroides
In short: as §1

corn [19] = test: Test A preemergence; assay type: in vivo, Zea mays
In short: as §1

ragweed [20] = test: Test A preemergence; assay type: in vivo, Ambrosia artemisiifolia
In short: as §1

horseweed = test: Test A postemergence; assay type: in vivo, Erigeron canadensis
In short: as §1

soybean [21] = test: Test A preemergence; assay type: in vivo, Glycine max
In short: as §1

oat, wild [22] = test: Test A postemergence; assay type: in vivo, Avena fatua
In short: as §1

[23] = 125 g ai/ha, visual injury after 10 days, 0 to 100 scale, 0 is no effect, 100 is complete control
[24] = 500 g ai/ha, 0 to 100 scale (0 no effect, 100 complete control), 10 days
[25] = 125 g ai/ha, postemergence, 10 days, visual injury, 0 to 100 scale (0 no effect, 100 complete control)
[26] = 500 g ai/ha, Postemergence, 0 to 100 scale
[27] = 500 g ai/ha, postemergence, 10 days, visual injury, 0 to 100 scale (0 no effect, 100 complete control)
[28] = 125 g ai/ha, postemergence, 10 days, 0 to 100 scale, 0 no effect, 100 complete control

## Cc1cccc2c1O[C@@H](C)CN2C(=O)c1cccc(-n2cncn2)c1F [Compound 53]
oat, wild [1]; [23]
  Plant response rating, Oat, Wild: 0
oat, wild [1]; [24]
  Plant response rating, Oat, Wild: 0
rice
  Plant response rating, Rice: 0
Goosegrass [2]; [23]
  Plant response rating, Goosegrass: 0
Goosegrass [2]; [24]
  Plant response rating, Goosegrass: 40
sedge, umbrella
  Plant response rating, Sedge, Umbrella: 0
Kochia [3]; [25]
  Plant response rating, Kochia: 0
Kochia [3]; [26]
  Plant response rating, Kochia: 10
barnyardgrass
  Plant response rating, Barnyardgrass: 0
Blackgrass [4]; [23]
  Plant response rating, Blackgrass: 0
Blackgrass [4]; [24]
  Plant response rating, Blackgrass: 0
Ragweed [5]; [25]
  Plant response rating, Ragweed: 0
Ragweed [5]; [26]
  Plant response rating, Ragweed: 0
Goosegrass [6]; [25]
  Plant response rating, Goosegrass: 20
Goosegrass [6]; [26]
  Plant response rating, Goosegrass: 40
Soybean [7]; [25]
  Plant response rating, Soybean: 20
Soybean [7]; [26]
  Plant response rating, Soybean: 50
pigweed, palmer [8]; [25]
  Plant response rating, Pigweed, Palmer: 0
pigweed, palmer [8]; [26]
  Plant response rating, Pigweed, Palmer: 30
ducksalad
  Plant response rating, Ducksalad: 0
ryegrass, Italian [9]; [23]
  Plant response rating, Ryegrass, Italian: 30
ryegrass, Italian [9]; [24]
  Plant response rating, Ryegrass, Italian: 70
pigweed, palmer [10]; [23]
  Plant response rating, Pigweed, Palmer: 0
pigweed, palmer [10]; [24]
  Plant response rating, Pigweed, Palmer: 0
Corn [11]; [25]
  Plant response rating, Corn: 0
Corn [11]; [26]
  Plant response rating, Corn: 0
foxtail, giant [12]; [25]
  Plant response rating, Foxtail, Giant: 0
foxtail, giant [12]; [26]
  Plant response rating, Foxtail, Giant: 10
galium; [25]
  Plant response rating, Galium: 0
galium; [26]
  Plant response rating, Galium: 0
Wheat [13]; [23]
  Plant response rating, Wheat: 0
Wheat [13]; [24]
  Plant response rating, Wheat: 10
Wheat [14]; [25]
  Plant response rating, Wheat: 0
Wheat [14]; [26]
  Plant response rating, Wheat: 0
Kochia [15]; [23]
  Plant response rating, Kochia: 0
Kochia [15]; [24]
  Plant response rating, Kochia: 20
ryegrass, Italian [16]; [25]
  Plant response rating, Ryegrass, Italian: 0
ryegrass, Italian [16]; [26]
  Plant response rating, Ryegrass, Italian: 0
foxtail, giant [17]; [23]
  Plant response rating, Foxtail, Giant: 0
foxtail, giant [17]; [24]
  Plant response rating, Foxtail, Giant: 0
Blackgrass [18]; [25]
  Plant response rating, Blackgrass: 0
Blackgrass [18]; [26]
  Plant response rating, Blackgrass: 20
Corn [19]; [23]
  Plant response rating, Corn: 0
Corn [19]; [24]
  Plant response rating, Corn: 0
Ragweed [20]; [23]
  Plant response rating, Ragweed: 0
Ragweed [20]; [24]
  Plant response rating, Ragweed: 0
horseweed; [25]
  Plant response rating, Horseweed: 0
horseweed; [26]
  Plant response rating, Horseweed: 0
Soybean [21]; [23]
  Plant response rating, Soybean: 0
Soybean [21]; [24]
  Plant response rating, Soybean: 0
oat, wild [22]; [25]
  Plant response rating, Oat, Wild: 0
oat, wild [22]; [26]
  Plant response rating, Oat, Wild: 0

## C[C@H]1CN(C(=O)c2cc(-n3cncn3)ccc2C(F)(F)F)c2cccc(Cl)c2O1 [Compound 70]
oat, wild [1]; [23]
  Plant response rating, Oat, Wild: 0
oat, wild [1]; [24]
  Plant response rating, Oat, Wild: 70
rice
  Plant response rating, Rice: 0
Goosegrass [2]; [23]
  Plant response rating, Goosegrass: 70
Goosegrass [2]; [24]
  Plant response rating, Goosegrass: 100
sedge, umbrella
  Plant response rating, Sedge, Umbrella: 0
Kochia [3]; [25]
  Plant response rating, Kochia: 10
Kochia [3]; [27]
  Plant response rating, Kochia: 60
barnyardgrass
  Plant response rating, Barnyardgrass: 0
Blackgrass [4]; [23]
  Plant response rating, Blackgrass: 30
Blackgrass [4]; [24]
  Plant response rating, Blackgrass: 80
Ragweed [5]; [27]
  Plant response rating, Ragweed: 0
Goosegrass [6]; [25]
  Plant response rating, Goosegrass: 10
Goosegrass [6]; [27]
  Plant response rating, Goosegrass: 10
Soybean [7]; [27]
  Plant response rating, Soybean: 100
pigweed, palmer [8]; [27]
  Plant response rating, Pigweed, Palmer: 70
ducksalad
  Plant response rating, Ducksalad: 0
ryegrass, Italian [9]; [23]
  Plant response rating, Ryegrass, Italian: 50
ryegrass, Italian [9]; [24]
  Plant response rating, Ryegrass, Italian: 90
pigweed, palmer [10]; [23]
  Plant response rating, Pigweed, Palmer: 20
pigweed, palmer [10]; [24]
  Plant response rating, Pigweed, Palmer: 90
Corn [11]; [25]
  Plant response rating, Corn: 10
Corn [11]; [27]
  Plant response rating, Corn: 10
foxtail, giant [12]; [25]
  Plant response rating, Foxtail, Giant: 10
foxtail, giant [12]; [27]
  Plant response rating, Foxtail, Giant: 30
galium; [25]
  Plant response rating, Galium: 50
galium; [27]
  Plant response rating, Galium: 80
Wheat [13]; [23]
  Plant response rating, Wheat: 0
Wheat [13]; [24]
  Plant response rating, Wheat: 10
Wheat [14]; [27]
  Plant response rating, Wheat: 20
Kochia [15]; [23]
  Plant response rating, Kochia: 0
Kochia [15]; [24]
  Plant response rating, Kochia: 0
ryegrass, Italian [16]; [27]
  Plant response rating, Ryegrass, Italian: 30
foxtail, giant [17]; [23]
  Plant response rating, Foxtail, Giant: 20
foxtail, giant [17]; [24]
  Plant response rating, Foxtail, Giant: 100
Blackgrass [18]; [25]
  Plant response rating, Blackgrass: 30
Blackgrass [18]; [26]
  Plant response rating, Blackgrass: 70
Corn [19]; [23]
  Plant response rating, Corn: 10
Corn [19]; [24]
  Plant response rating, Corn: 20
Ragweed [20]; [23]
  Plant response rating, Ragweed: 0
Ragweed [20]; [24]
  Plant response rating, Ragweed: 0
horseweed; [25]
  Plant response rating, Horseweed: 0
horseweed; [27]
  Plant response rating, Horseweed: 0
Soybean [21]; [23]
  Plant response rating, Soybean: 0
Soybean [21]; [24]
  Plant response rating, Soybean: 0
oat, wild [22]; [27]
  Plant response rating, Oat, Wild: 10

## CCc1ccc(-n2cnc(C3CCC3)n2)cc1C(=O)N1C[C@H](C)Oc2c(Cl)cccc21 [Compound 104]
oat, wild [1]; [23]
  Plant response rating, Oat, Wild: 0
oat, wild [1]; [24]
  Plant response rating, Oat, Wild: 70
rice
  Plant response rating, Rice: 20
Goosegrass [2]; [23]
  Plant response rating, Goosegrass: 100
Goosegrass [2]; [24]
  Plant response rating, Goosegrass: 100
sedge, umbrella
  Plant response rating, Sedge, Umbrella: 98
Kochia [3]; [28]
  Kochia plant response rating: 80
Kochia [3]; [27]
  Plant response rating, Kochia: 100
barnyardgrass
  Plant response rating, Barnyardgrass: 60
Blackgrass [4]; [23]
  Plant response rating, Blackgrass: 30
Blackgrass [4]; [24]
  Plant response rating, Blackgrass: 40
Ragweed [5]; [28]
  Ragweed plant response rating: 0
Ragweed [5]; [27]
  Plant response rating, Ragweed: 30
Goosegrass [6]; [28]
  Goosegrass plant response rating: 50
Goosegrass [6]; [27]
  Plant response rating, Goosegrass: 80
Soybean [7]; [28]
  Soybean plant response rating: 100
Soybean [7]; [27]
  Plant response rating, Soybean: 100
pigweed, palmer [8]; [28]
  Pigweed, Palmer plant response rating: 80
pigweed, palmer [8]; [27]
  Plant response rating, Pigweed, Palmer: 100
ducksalad
  Plant response rating, Ducksalad: 25
ryegrass, Italian [9]; [23]
  Plant response rating, Ryegrass, Italian: 50
ryegrass, Italian [9]; [24]
  Plant response rating, Ryegrass, Italian: 90
pigweed, palmer [10]; [23]
  Plant response rating, Pigweed, Palmer: 90
pigweed, palmer [10]; [24]
  Plant response rating, Pigweed, Palmer: 100
Corn [11]; [28]
  Corn plant response rating: 40
Corn [11]; [27]
  Plant response rating, Corn: 80
foxtail, giant [12]; [28]
  Foxtail, Giant plant response rating: 90
foxtail, giant [12]; [27]
  Plant response rating, Foxtail, Giant: 90
galium; [28]
  Galium plant response rating: 60
galium; [27]
  Plant response rating, Galium: 100
Wheat [13]; [23]
  Plant response rating, Wheat: 0
Wheat [13]; [24]
  Plant response rating, Wheat: 0
Wheat [14]; [28]
  Wheat plant response rating: 10
Wheat [14]; [27]
  Plant response rating, Wheat: 10
Kochia [15]; [23]
  Plant response rating, Kochia: 50
Kochia [15]; [24]
  Plant response rating, Kochia: 100
ryegrass, Italian [16]; [28]
  Ryegrass, Italian plant response rating: 30
ryegrass, Italian [16]; [27]
  Plant response rating, Ryegrass, Italian: 60
foxtail, giant [17]; [23]
  Plant response rating, Foxtail, Giant: 100
foxtail, giant [17]; [24]
  Plant response rating, Foxtail, Giant: 100
Blackgrass [18]; [28]
  Blackgrass plant response rating: 0
Blackgrass [18]; [27]
  Plant response rating, Blackgrass: 50
Corn [19]; [23]
  Plant response rating, Corn: 0
Corn [19]; [24]
  Plant response rating, Corn: 0
Ragweed [20]; [23]
  Plant response rating, Ragweed: 0
Ragweed [20]; [24]
  Plant response rating, Ragweed: 40
horseweed; [28]
  Horseweed plant response rating: 0
horseweed; [27]
  Plant response rating, Horseweed: 0
Soybean [21]; [23]
  Plant response rating, Soybean: 60
Soybean [21]; [24]
  Plant response rating, Soybean: 90
oat, wild [22]; [28]
  Oat, Wild plant response rating: 20
oat, wild [22]; [27]
  Plant response rating, Oat, Wild: 40
